In PubChem BioAssay (NCI):
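Five concentrations, 48 hours, 96-well plates. TGI: concentration producing complete growth inhibition.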

Experiments:
Test in all cases: NCI anticancer screen, dose series, 48 h
786-0 renal = system: 786-0 renal
A549 NSCLC = system: A549 NSCLC
ACHN renal = system: ACHN renal
CAKI-1 renal = system: CAKI-1 renal
CCRF-CEM leukemia = system: CCRF-CEM leukemia
COLO 205 colon = system: COLO 205 colon
DLD-1 colon = system: DLD-1 colon
DMS 114 small cell lung = system: DMS 114 small cell lung
DMS 273 small cell lung = system: DMS 273 small cell lung
EKVX NSCLC = system: EKVX NSCLC
HCC-2998 colon = system: HCC-2998 colon
HCT-116 colon = system: HCT-116 colon
HCT-15 colon = system: HCT-15 colon
HL-60(TB) leukemia = system: HL-60(TB) leukemia
HOP-18 NSCLC = system: HOP-18 NSCLC
HOP-62 NSCLC = system: HOP-62 NSCLC
HOP-92 NSCLC = system: HOP-92 NSCLC
HT29 colon = system: HT29 colon
IGROV1 ovarian = system: IGROV1 ovarian
K-562 leukemia = system: K-562 leukemia
KM12 colon = system: KM12 colon
KM20L2 colon = system: KM20L2 colon
LOX IMVI melanoma = system: LOX IMVI melanoma
LXFL 529 NSCLC = system: LXFL 529 NSCLC
M14 melanoma = system: M14 melanoma
M19-MEL melanoma = system: M19-MEL melanoma
MALME-3M melanoma = system: MALME-3M melanoma
MOLT-4 leukemia = system: MOLT-4 leukemia
NCI-H226 lung = system: NCI-H226 lung
NCI-H23 lung = system: NCI-H23 lung
NCI-H460 lung = system: NCI-H460 lung
NCI-H522 lung = system: NCI-H522 lung
OVCAR-3 ovarian = system: OVCAR-3 ovarian
OVCAR-4 ovarian = system: OVCAR-4 ovarian
OVCAR-5 ovarian = system: OVCAR-5 ovarian
OVCAR-8 ovarian = system: OVCAR-8 ovarian
RPMI-8226 leukemia = system: RPMI-8226 leukemia
RXF 393 renal = system: RXF 393 renal
RXF-631 renal = system: RXF-631 renal
SF-295 CNS = system: SF-295 CNS
SF-539 CNS = system: SF-539 CNS
SK-MEL-2 melanoma = system: SK-MEL-2 melanoma
SK-MEL-28 melanoma = system: SK-MEL-28 melanoma
SK-MEL-5 melanoma = system: SK-MEL-5 melanoma
SK-OV-3 ovarian = system: SK-OV-3 ovarian
SN12C renal = system: SN12C renal
SNB-19 CNS = system: SNB-19 CNS
SNB-75 CNS = system: SNB-75 CNS
SNB-78 CNS = system: SNB-78 CNS
SR leukemia = system: SR leukemia
SW-620 colon = system: SW-620 colon
TK-10 renal = system: TK-10 renal
U251 CNS = system: U251 CNS
UACC-257 melanoma = system: UACC-257 melanoma
UACC-62 melanoma = system: UACC-62 melanoma
UO-31 renal = system: UO-31 renal
XF 498 CNS = system: XF 498 CNS
A498 renal = system: A498 renal
SF-268 CNS = system: SF-268 CNS

`CCCCCCCCCCCCCCCCP(=O)(OC)OC` gave a TGI (786-0 renal) of 31.4 µM, a TGI (A549 NSCLC) of 33.4 µM and a TGI (ACHN renal) of 28 µM. It also gave a TGI (CAKI-1 renal) of 30.5 µM, a TGI (CCRF-CEM leukemia) of 40.1 µM and a TGI (COLO 205 colon) of 30.7 µM. The TGI (DLD-1 colon) was 31.4 µM, the TGI (DMS 114 small cell lung) was 30.5 µM and the TGI (DMS 273 small cell lung) was 27.6 µM. It also gave a TGI (EKVX NSCLC) of 30 µM, a TGI (HCC-2998 colon) of 30.8 µM and a TGI (HCT-116 colon) of 33.1 µM. For the same compound, the TGI (HCT-15 colon) was 30.2 µM, the TGI (HL-60(TB) leukemia) was 27.3 µM and the TGI (HOP-18 NSCLC) was 28.6 µM. For the same compound, the TGI (HOP-62 NSCLC) was 24.3 µM, the TGI (HOP-92 NSCLC) was 35.3 µM and the TGI (HT29 colon) was 31.6 µM. It also gave a TGI (IGROV1 ovarian) of 34.6 µM, a TGI (K-562 leukemia) of 44.8 µM and a TGI (KM12 colon) of 32.2 µM. It also gave a TGI (KM20L2 colon) of 37.4 µM, a TGI (LOX IMVI melanoma) of 31.9 µM and a TGI (LXFL 529 NSCLC) of 29.3 µM. It also gave a TGI (M14 melanoma) of 30.2 µM, a TGI (M19-MEL melanoma) of 30.3 µM and a TGI (MALME-3M melanoma) of 32.7 µM. It also gave a TGI (MOLT-4 leukemia) of 32.3 µM, a TGI (NCI-H226 lung) of 33.2 µM and a TGI (NCI-H23 lung) of 31.8 µM. It also gave a TGI (NCI-H460 lung) of 31.1 µM, a TGI (NCI-H522 lung) of 26.8 µM and a TGI (OVCAR-3 ovarian) of 31.9 µM. For the same compound, the TGI (OVCAR-4 ovarian) was 35.9 µM, the TGI (OVCAR-5 ovarian) was 27.1 µM and the TGI (OVCAR-8 ovarian) was 30.9 µM. It also gave a TGI (RPMI-8226 leukemia) of 35 µM, a TGI (RXF 393 renal) of 34.4 µM and a TGI (RXF-631 renal) of 31.3 µM. The TGI (SF-295 CNS) was 32.4 µM, the TGI (SF-539 CNS) was 34.9 µM and the TGI (SK-MEL-2 melanoma) was 30 µM. It also gave a TGI (SK-MEL-28 melanoma) of 31.6 µM, a TGI (SK-MEL-5 melanoma) of 30.7 µM and a TGI (SK-OV-3 ovarian) of 29 µM. For the same compound, the TGI (SN12C renal) was 31.3 µM, the TGI (SNB-19 CNS) was 28.6 µM and the TGI (SNB-75 CNS) was 32 µM. The TGI (SNB-78 CNS) was 34.1 µM, the TGI (SR leukemia) was 37.9 µM and the TGI (SW-620 colon) was 28.2 µM. The TGI (TK-10 renal) was 31 µM, the TGI (U251 CNS) was 32.4 µM and the TGI (UACC-257 melanoma) was 31.8 µM. For the same compound, the TGI (UACC-62 melanoma) was 27.8 µM, the TGI (UO-31 renal) was 24.5 µM and the TGI (XF 498 CNS) was 25.8 µM.
Compound `Cc1ccnc(NS(=O)(=O)c2ccc(NC3=CC(=O)C(=O)c4ccccc43)cc2)n1` has a TGI (786-0 renal) greater than 100 µM, a TGI (A498 renal) greater than 100 µM and a TGI (A549 NSCLC) greater than 100 µM. The TGI (ACHN renal) was greater than 100 µM, the TGI (CAKI-1 renal) was greater than 100 µM and the TGI (CCRF-CEM leukemia) was greater than 100 µM. For the same compound, the TGI (COLO 205 colon) was greater than 100 µM, the TGI (DLD-1 colon) was greater than 100 µM and the TGI (DMS 114 small cell lung) was greater than 100 µM. It also gave a TGI (DMS 273 small cell lung) greater than 100 µM, a TGI (EKVX NSCLC) greater than 100 µM and a TGI (HCC-2998 colon) greater than 100 µM. It also gave a TGI (HCT-116 colon) greater than 100 µM, a TGI (HCT-15 colon) greater than 100 µM and a TGI (HL-60(TB) leukemia) greater than 100 µM. The TGI (HOP-18 NSCLC) was greater than 100 µM, the TGI (HOP-62 NSCLC) was greater than 100 µM and the TGI (HT29 colon) was greater than 100 µM. The TGI (IGROV1 ovarian) was greater than 100 µM, the TGI (K-562 leukemia) was greater than 100 µM and the TGI (KM12 colon) was greater than 100 µM. The TGI (KM20L2 colon) was greater than 100 µM, the TGI (LOX IMVI melanoma) was greater than 100 µM and the TGI (LXFL 529 NSCLC) was greater than 100 µM. The TGI (M14 melanoma) was greater than 100 µM, the TGI (M19-MEL melanoma) was greater than 100 µM and the TGI (MALME-3M melanoma) was greater than 100 µM. The TGI (MOLT-4 leukemia) was greater than 100 µM, the TGI (NCI-H226 lung) was greater than 100 µM and the TGI (NCI-H23 lung) was greater than 100 µM. For the same compound, the TGI (NCI-H460 lung) was greater than 100 µM, the TGI (NCI-H522 lung) was greater than 100 µM and the TGI (OVCAR-3 ovarian) was greater than 100 µM. For the same compound, the TGI (OVCAR-4 ovarian) was greater than 100 µM, the TGI (OVCAR-5 ovarian) was greater than 100 µM and the TGI (OVCAR-8 ovarian) was greater than 100 µM. It also gave a TGI (RXF 393 renal) greater than 100 µM, a TGI (RXF-631 renal) greater than 100 µM and a TGI (SF-268 CNS) greater than 100 µM. The TGI (SF-295 CNS) was greater than 100 µM, the TGI (SF-539 CNS) was greater than 100 µM and the TGI (SK-MEL-2 melanoma) was greater than 100 µM. The TGI (SK-MEL-28 melanoma) was greater than 100 µM, the TGI (SK-MEL-5 melanoma) was greater than 100 µM and the TGI (SK-OV-3 ovarian) was greater than 100 µM. The TGI (SN12C renal) was greater than 100 µM, the TGI (SNB-19 CNS) was greater than 100 µM and the TGI (SNB-75 CNS) was greater than 100 µM. For the same compound, the TGI (SNB-78 CNS) was greater than 100 µM, the TGI (SR leukemia) was greater than 100 µM and the TGI (SW-620 colon) was greater than 100 µM. The TGI (TK-10 renal) was greater than 100 µM, the TGI (U251 CNS) was greater than 100 µM and the TGI (UACC-257 melanoma) was greater than 100 µM. For the same compound, the TGI (UACC-62 melanoma) was greater than 100 µM, the TGI (UO-31 renal) was greater than 100 µM and the TGI (XF 498 CNS) was greater than 100 µM.
With `O=c1nc2sc3ccc4ccccc4c3n2nc1-c1ccccc1` the TGI (786-0 renal) was 38 µM, the TGI (A549 NSCLC) was 94.5 µM and the TGI (ACHN renal) was 87.4 µM. It also gave a TGI (CAKI-1 renal) of 73.9 µM, a TGI (CCRF-CEM leukemia) greater than 100 µM and a TGI (COLO 205 colon) greater than 100 µM. The TGI (DLD-1 colon) was greater than 100 µM, the TGI (DMS 114 small cell lung) was greater than 100 µM and the TGI (DMS 273 small cell lung) was greater than 100 µM. It also gave a TGI (EKVX NSCLC) greater than 100 µM, a TGI (HCC-2998 colon) greater than 100 µM and a TGI (HCT-116 colon) of 51.2 µM. It also gave a TGI (HCT-15 colon) greater than 100 µM, a TGI (HL-60(TB) leukemia) greater than 100 µM and a TGI (HOP-18 NSCLC) of 93.7 µM. For the same compound, the TGI (HOP-62 NSCLC) was 66.6 µM, the TGI (HOP-92 NSCLC) was 50 µM and the TGI (HT29 colon) was greater than 100 µM. It also gave a TGI (IGROV1 ovarian) of 82.6 µM, a TGI (K-562 leukemia) greater than 100 µM and a TGI (KM12 colon) greater than 100 µM. The TGI (KM20L2 colon) was greater than 100 µM, the TGI (LOX IMVI melanoma) was 28.4 µM and the TGI (LXFL 529 NSCLC) was greater than 100 µM. For the same compound, the TGI (M14 melanoma) was greater than 100 µM, the TGI (M19-MEL melanoma) was greater than 100 µM and the TGI (MALME-3M melanoma) was 41.1 µM. It also gave a TGI (MOLT-4 leukemia) greater than 100 µM, a TGI (NCI-H226 lung) greater than 100 µM and a TGI (NCI-H23 lung) of 87.5 µM. For the same compound, the TGI (NCI-H460 lung) was 59.2 µM, the TGI (OVCAR-3 ovarian) was 40.4 µM and the TGI (OVCAR-4 ovarian) was 29.3 µM. For the same compound, the TGI (OVCAR-5 ovarian) was greater than 100 µM, the TGI (OVCAR-8 ovarian) was 42.2 µM and the TGI (RXF 393 renal) was 70.6 µM. For the same compound, the TGI (RXF-631 renal) was greater than 100 µM, the TGI (SF-268 CNS) was greater than 100 µM and the TGI (SF-295 CNS) was 33.3 µM. For the same compound, the TGI (SF-539 CNS) was 34.2 µM, the TGI (SK-MEL-2 melanoma) was greater than 100 µM and the TGI (SK-MEL-28 melanoma) was greater than 100 µM. It also gave a TGI (SK-MEL-5 melanoma) greater than 100 µM, a TGI (SK-OV-3 ovarian) of 95.1 µM and a TGI (SN12C renal) of 93.8 µM. The TGI (SNB-19 CNS) was greater than 100 µM, the TGI (SNB-75 CNS) was 46.9 µM and the TGI (SNB-78 CNS) was greater than 100 µM. The TGI (SR leukemia) was greater than 100 µM, the TGI (SW-620 colon) was greater than 100 µM and the TGI (TK-10 renal) was 50.4 µM. For the same compound, the TGI (U251 CNS) was 38.2 µM, the TGI (UACC-257 melanoma) was greater than 100 µM and the TGI (UACC-62 melanoma) was greater than 100 µM. It also gave a TGI (UO-31 renal) of 51.4 µM and a TGI (XF 498 CNS) of 70.2 µM.
